Results on three compounds are retold here after US9585387B1, “PEHAM dendrimers for use in agriculture” (Starpharma Pty Ltd, priority 2009, dated 2017).

Each structure is given as a SMILES string.

The series is described as follows: Solubility of active constituents in dendrimer solutions by HPLC (Example 26). It is filed as physicochemical. The method, then:
Four PEHAM dendrimers, each at 10 g/L and 100 g/L in water, were used for evaluation. A 15 g of each dendrimer was dissolved in distilled water and made accurately to 150 mL volume. Determination of pH was then made using a calibrated pH meter and electrode.
To prepare saturated solutions of active constituent in 100 g/L dendrimer solutions, 10 mL of each 100 g/L dendrimer solution was placed into a 50 mL test tube and 0.2 g of active constituent was then also added. The test tube was then briefly shaken to disperse the contents, before being placed in an ultrasonic water bath, and subjected to sonication for 30 mins at […] The test tube and contents were then cooled to […] and then a 2.0 mL aliquot was taken and filtered through a 0.45 μm PTFE membrane filter.
To prepare saturated solutions of active constituent in 10 g/L dendrimer solutions, 1.0 mL of each 100 g/L dendrimer solution was placed into a 50 mL test tube and a 9.0 mL aliquot of distilled water added and 0.2 g of active constituent was then also added. The test tube was then briefly shaken to disperse the contents, before being placed in an ultrasonic water bath, and subjected to sonication for 30 mins at […] The test tube and contents were then cooled to […] and then a 2.0 mL aliquot was taken and filtered through a 0.45 μm PTFE membrane filter
Each prepared and filtered solution was examined in a light box for Tyndall Scattering (light scattering by particles in a colloid or particles in a fine suspension). A visual observation was made and recorded for each solution. Ten active constituents that were selected to cover a range of water solubility were treated according to the method described here. A total of 200 filtered solutions were prepared.
High Performance Liquid Chromatography was used to analyse each active constituent in each dendrimer solution. Each saturated active constituent solution was freshly prepared for immediate analysis or frozen at <−15° C. where analysis could not take place within 2 hours of preparation. The following are details of the HPLC equipment used. For each active constituent a set of 4 calibration solutions was prepared 0 to 25 ppm. A sequence of injections comparing the peak area of the calibration solutions and the dendrimer solutions was then undertaken. The dendrimer solutions were diluted as required to maintain their respective peak area response within the calibration range. The active constituent concentration (ppm) in the dendrimer solution was determined by calculation: RF×SA×DF, where RF=Response Factor (concentration of calibration solution per unit of peak area, SA=Sample Peak Area (peak area of the sample solution), and DF=Dilution Factor (dilution of the sample solution). HPLC conditions were varied to ensure the optimum detection and separation of each active constituent from excipients.

As for `CCC(COCC(O)CN(CCOC)CCOC)(COCC(O)CN(CCOC)CCOC)COCC(O)CN(CCOC)CCOC` (stereo not drawn) [Example 15, [(C)=TMPTGE; (FF)=Et; (IF1)=OH; (BR1)=DEA; (TF)=OMe; G=1]], the “Ratio of Active Ingredient in Dendrimer Solution (ppm) to Active Ingredient in Water (ppm)” value (“Ratio of Active Ingredient” for short) is, setting by setting: (6-BAP, 10 g/L loading) 3; (6-BAP, 100 g/L loading) 475; (Bifenthrin, 10 g/L loading) 9; (Bifenthrin, 100 g/L loading) 1; (Clomazone, 10 g/L loading) 1; (Clomazone, 100 g/L loading) 1. Also, the “Ratio of Active Ingredient” value (Flumetsulam, 10 g/L loading) is given as 1; the “Ratio of Active Ingredient” value (Flumetsulam, 100 g/L loading) amounted to 2; the “Ratio of Active Ingredient” value (Mcylobutanil, 10 g/L loading) was 2; the “Ratio of Active Ingredient” value (Mcylobutanil, 100 g/L loading) came to 3; the “Ratio of Active Ingredient” value (Penconazole, 10 g/L loading) is given as 2; the “Ratio of Active Ingredient” value (Penconazole, 100 g/L loading) is 12. The “Ratio of Active Ingredient” value (Pendimethalin, 10 g/L loading) came out at 44; the “Ratio of Active Ingredient” value (Pendimethalin, 100 g/L loading) is given as 41; the “Ratio of Active Ingredient” value (Propaquizafop, 10 g/L loading) was 1; the “Ratio of Active Ingredient” value (Propaquizafop, 100 g/L loading) was 1; the “Ratio of Active Ingredient” value (Thiamethoxam, 10 g/L loading) is recorded as 2; the “Ratio of Active Ingredient” value (Thiamethoxam, 100 g/L loading) amounted to 2. In addition, the “Ratio of Active Ingredient” value (Thidiazuron, 10 g/L loading) is recorded as 5 and the “Ratio of Active Ingredient” value (Thidiazuron, 100 g/L loading) is given as 17.

As for `CCC(COCC(O)CN(CC(=O)[O-])CC(=O)[O-])(COCC(O)CN(CC(=O)[O-])CC(=O)[O-])COCC(O)CN(CC(=O)[O-])CC(=O)[O-].[Na+].[Na+].[Na+].[Na+].[Na+].[Na+]` (stereo not drawn) [Example 10, [(C)=TMPTGE; (FF)=Et; (IF1)=OH; (BR1)=IDA; (TF)=CO2Na; G=1]], the “Ratio of Active Ingredient” value (6-BAP, 10 g/L loading) is 7; the “Ratio of Active Ingredient” value (6-BAP, 100 g/L loading) is listed as 448; the “Ratio of Active Ingredient” value (Bifenthrin, 10 g/L loading) was 1; the “Ratio of Active Ingredient” value (Bifenthrin, 100 g/L loading) was 1; the “Ratio of Active Ingredient” value (Clomazone, 10 g/L loading) was found to be 1; the “Ratio of Active Ingredient” value (Clomazone, 100 g/L loading) amounted to 1. For the same compound, the “Ratio of Active Ingredient” value is, setting by setting: (Flumetsulam, 10 g/L loading) 2; (Flumetsulam, 100 g/L loading) 2; (Mcylobutanil, 10 g/L loading) 2; (Mcylobutanil, 100 g/L loading) 2; (Penconazole, 10 g/L loading) 2; (Penconazole, 100 g/L loading) 3. Moreover, the “Ratio of Active Ingredient” value by setting is: (Pendimethalin, 10 g/L loading) 11; (Pendimethalin, 100 g/L loading) 2; (Propaquizafop, 10 g/L loading) 1; (Propaquizafop, 100 g/L loading) 1; (Thiamethoxam, 10 g/L loading) 2; (Thiamethoxam, 100 g/L loading) 1. In addition, the “Ratio of Active Ingredient” value is, setting by setting: (Thidiazuron, 10 g/L loading) 19; (Thidiazuron, 100 g/L loading) 40.

For the compound `CCC(COCC(O)CN(CCN)CCN)(COCC(O)CN(CCN)CCN)COCC(O)CN(CCN)CCN` (stereo not drawn) [Example 14, [(C)=TMPTGE; (IF1)=OH; (BR1)=DETA; (TF)=Primary NH2; G=1]], the “Ratio of Active Ingredient” value runs as follows: (6-BAP, 10 g/L loading) 10; (6-BAP, 100 g/L loading) 2740; (Bifenthrin, 10 g/L loading) 1; (Bifenthrin, 100 g/L loading) 4; (Clomazone, 10 g/L loading) 1; (Clomazone, 100 g/L loading) 1. In addition, the “Ratio of Active Ingredient” value reads like this: (Flumetsulam, 10 g/L loading) 2; (Flumetsulam, 100 g/L loading) 2; (Mcylobutanil, 10 g/L loading) 3; (Mcylobutanil, 100 g/L loading) 4; (Penconazole, 10 g/L loading) 2; (Penconazole, 100 g/L loading) 6. The “Ratio of Active Ingredient” value was 172 (Pendimethalin, 10 g/L loading); 15 (Pendimethalin, 100 g/L loading); 1 (Propaquizafop, 10 g/L loading); 1 (Propaquizafop, 100 g/L loading); 2 (Thiamethoxam, 10 g/L loading); 1 (Thiamethoxam, 100 g/L loading). Besides, the “Ratio of Active Ingredient” value by setting is: (Thidiazuron, 10 g/L loading) 46; (Thidiazuron, 100 g/L loading) 329.
